# Reference: ChEMBL document CHEMBL1777708, “An expeditious access to 5-pyrimidinol derivatives from cyclic methylglyoxal diadducts, formation of argpyrimidines under physiological conditions and discovery of new CFTR inhibitors” (Eur J Med Chem, 2011)
# Active and inactive are the calls of the source. No cut-off for these calls is given here.
# Key:
# [1] = Dissociation constant, pKa of the compound by spectrophotometry; type: physicochemical
# [2] = target: Cystic fibrosis transmembrane conductance regulator (Homo sapiens) (UniProt P13569); assay: Inhibition of wild type CFTR expressed in CHO cells by [125I]iodide efflux assay; type: cell-based
# Chain of Cystic fibrosis transmembrane conductance regulator (Homo sapiens) (P13569 whole entry, looked up): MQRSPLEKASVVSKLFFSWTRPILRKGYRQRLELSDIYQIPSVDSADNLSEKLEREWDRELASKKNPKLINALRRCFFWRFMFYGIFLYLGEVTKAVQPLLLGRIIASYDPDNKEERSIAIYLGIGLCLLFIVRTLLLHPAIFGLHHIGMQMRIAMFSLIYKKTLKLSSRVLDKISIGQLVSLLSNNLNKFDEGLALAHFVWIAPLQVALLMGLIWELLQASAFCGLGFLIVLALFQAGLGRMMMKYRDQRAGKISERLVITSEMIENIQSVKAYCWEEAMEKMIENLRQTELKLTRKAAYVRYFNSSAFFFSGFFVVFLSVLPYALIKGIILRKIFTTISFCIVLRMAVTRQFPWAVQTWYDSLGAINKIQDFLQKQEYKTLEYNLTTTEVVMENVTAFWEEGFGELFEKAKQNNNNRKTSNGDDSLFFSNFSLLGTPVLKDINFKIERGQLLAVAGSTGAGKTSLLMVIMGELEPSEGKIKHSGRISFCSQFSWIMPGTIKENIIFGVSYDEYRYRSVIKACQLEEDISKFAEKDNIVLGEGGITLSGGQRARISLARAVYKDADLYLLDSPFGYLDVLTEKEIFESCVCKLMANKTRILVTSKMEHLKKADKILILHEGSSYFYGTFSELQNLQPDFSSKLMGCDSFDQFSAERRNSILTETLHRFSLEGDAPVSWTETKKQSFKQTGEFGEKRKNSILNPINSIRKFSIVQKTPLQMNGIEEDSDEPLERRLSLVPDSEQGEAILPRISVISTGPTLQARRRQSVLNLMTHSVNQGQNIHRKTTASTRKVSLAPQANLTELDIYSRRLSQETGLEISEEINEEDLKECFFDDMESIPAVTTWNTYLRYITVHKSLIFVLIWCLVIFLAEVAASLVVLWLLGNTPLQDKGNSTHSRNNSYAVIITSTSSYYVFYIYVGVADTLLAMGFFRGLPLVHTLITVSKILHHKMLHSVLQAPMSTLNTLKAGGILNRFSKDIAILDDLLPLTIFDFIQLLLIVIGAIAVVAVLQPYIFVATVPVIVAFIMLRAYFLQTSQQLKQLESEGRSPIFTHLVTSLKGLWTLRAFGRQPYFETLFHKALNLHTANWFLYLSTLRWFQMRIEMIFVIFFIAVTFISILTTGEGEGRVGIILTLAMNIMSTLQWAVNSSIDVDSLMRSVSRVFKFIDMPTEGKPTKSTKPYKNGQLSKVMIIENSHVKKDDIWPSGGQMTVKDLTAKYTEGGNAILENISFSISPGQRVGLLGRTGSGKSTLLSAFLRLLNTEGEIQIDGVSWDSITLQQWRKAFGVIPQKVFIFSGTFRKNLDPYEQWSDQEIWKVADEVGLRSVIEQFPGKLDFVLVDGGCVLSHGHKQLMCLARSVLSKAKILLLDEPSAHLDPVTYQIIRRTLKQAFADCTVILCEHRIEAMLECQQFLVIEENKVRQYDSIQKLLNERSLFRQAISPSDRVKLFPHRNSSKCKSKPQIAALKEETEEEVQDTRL
pKa [1],inhibition [2],SMILES
4,,Cc1nc2c3ccccc3cc[n+]2c(C)c1[O-]
,inactive,C[C@]1(C(=O)O)N=C2C=CC=CN2[C@](C)(O)[C@@H]1O
,inactive,C[C@]1(C(=O)O)N=C2C=CC=CN2[C@](C)(O)[C@H]1O
